Test results from patent US5132432A, “Chemically reactive pyrenyloxy sulfonic acid dyes” (Molecular Probes, Inc., priority 1989, dated 1992).
Counter-ions that a name gives are not always drawn. Like-named read-outs stand apart in the source and are kept apart here.

Assays:
Swiss-Webster mice = settings: mouse, in vivo; cited from earlier work
[1] = physiological range (pH 6 to 8); cited from earlier work
[2] = Comparison of spectral properties of reactive dyes, Table 1; format: physicochemical; settings: for Quantum Yield: in aqueous solution, grade in words
Text: A number of dyes have been proposed in the literature that can be excited and detected at wavelengths less than 500 nm. Several chemically reactive fluorophores that can be excited in the near ultraviolet and short wavelength visible region of the spectrum have been described. […] These proposed tracers are derived from naphthalene derivatives such as 5-dimethylaminonaphthalene-1-sulfonic acid (Dansyl) [Weber, Biochem. J. 41:145 (1952); Rinderknecht, Experientin 16:430 (1960)], 3-(isothiocyanato)naphthalene-1,5-disulfonic acid [Braunitzer, et al., Hoppe-Seyler's Z. Physiol. […] Chem. 358:505 (1977)], pyrene derivatives such as pyrene-1-butyric acid (PBA) [Malencik & Anderson, Biochemistry 11:3022 (1972)], 8-isothiocyanatopyrene-1,3,6-trisulfonic acid (IPTS) [Braunitzer,et al., Hoppe-Seyler's Z. Physiol. Chem. 354:1536 (1973)] and 8-hydroxypyrene-1,3,6-trisulfonyl chloride [Wolfbeis, Fresenies Z. Anal. Chem. 320:271 (1985)], stilbene derivatives such as 4-acetamido-4'-isothiocyanatostilbene-2,2'-disulfonic acid (SITS) [Cornelisse & Ploem, J. Histochem. Cytochem. 24:72 (1976)], and coumarin dyes such as 3-carboxy-7-hydroxycoumarin [Baker & Collis, J. Chem. Soc. 1949, S 12 (1949)], 7-hydroxy-4-methylumbelliferone-3-acetic acid (4-MUA) [Khalfan, et al., Biochem. J. 209:265 (1983)], 7-amino-4-methylcoumarin-3-acetic acid (AMCA) [Khalfan, et al., Histochem. J. 18:497 (1986)] and 7-diethylaminocoumarin [Staines, et al. (1988)].

[3] = Solubility in water / aqueous solution; settings: solubility of the reactive form of the dye; grade in words
[4] = Emission spectra comparison of equimolar solutions / normalized spectra (FIG. 2, FIG. 3); format: physicochemical
Text: The narrower spectral width makes the dyes particularly valuable for applications requiring multiple dyes such as flow cytometry, DNA sequencing [Smith, et at. (1985)] and multiparameter microscopy. The utility of the objects of this invention in multiparameter applications is illustrated in FIG. 3. […] The extinction coefficients for the pyrenyloxy sulfonic acid dyes are generally greater than 25,000 cm^-1 M^-1 and the quantum yields of the dyes in aqueous solution are generally above 0.5. In FIG. 4, the emission intensities of bovine serum albumin (BSA) conjugates of the pyrene isothiocyanate IPTS are compared to the BSA conjugates of compound 9. […] The subject dyes show only minor spectral shifts and intensity changes between water, methanol, and ethanol and have absorption and emission spectra that lack significant pH dependence between pH 6 and 10, as illustrated in FIG. 5. Table 4 lists the approximate spectral properties of a number of the dyes and intermediates that are the subject of this invention.

[5] = Quantum yield relative to quinine sulfate; format: physicochemical; settings: in 50 mM phosphate buffer at pH 8.0
Text: An estimate of the quantum yield of the dyes relative to quinine sulfate (quantum yield=0.55 in 1N sulfuric acid) was obtained by integrating the emission spectrum of the dye excited at the same wavelength and optical density as the standard.

[6] = Spectral properties (absorption/emission) of new pyrenyloxy sulfonic acid dyes, Table 4; format: physicochemical; settings: 50 mM aqueous potassium phosphate buffer at pH 8.0
Procedure: Stock solutions were prepared by accurately weighing and dissolving 5-10 mg samples of the compounds in 2.000 ml water. A 10 μl aliquot of the stock solution was diluted into 2.00 ml of 50 mM potassium phosphate buffer at pH 8.0. Absorbance solutions were prepared by further diluting 200 μl of the diluted stock solution to 2.000 ml with 50 mM potassium phosphate buffer at pH 8.0. Absorption data was collected on an IBM Model 9420 UV/Visible Spectrophotometer and extinction coefficients were determined by standard Beer's Law calculations.
Uncorrected fluorescence data was obtained on a Perkin-Elmer Model 650-40 Fluorescence Spectrophotometer equipped with a Perkin-Elmer/Hitachi 057 X-Y Recorder using a ten- to twentyfold dilution of the absorbance solutions. Fluorescence of the pyrenyloxy sulfonic acid dyes was determined for the reactive dyes and for their conjugates with model compounds by dissolving the dye at a concentration above 1×10^-8M in an appropriate solvent such as water, methanol, ethanol, or dimethylsulfoxide and measurement of the fluorescence in a suitable instrument, such as a fluorescence spectrometer or fluorescence microscope or flow cytometer. Fluorescence could also be observed for the dyes in solution by visual inspection with illumination by a suitable source that emits light at wavelengths of less than 420 nm.

[7] = background statement; cited from earlier work
[8] = system: anion transport systems in red blood cells; settings: cited from earlier work
[9] = system: microsomal glucose-6-phosphatase; settings: cited from earlier work
[10] = cited from earlier work
[11] = in 1N sulfuric acid; cited from earlier work
[12] = full bandwidth at half peak height
[13] = percent of maximum emission at 514 nm

O=S(=O)([O-])c1cc(O)c2ccc3c(S(=O)(=O)[O-])cc(S(=O)(=O)[O-])c4ccc1c2c34.[Na+].[Na+].[Na+] [8-hydroxypyrene-1,3,6-trisulfonic acid, trisodium salt]
toxicity to Swiss-Webster mice (Swiss-Webster mice): nontoxic to Swiss-Webster mice

O=S(=O)(O)c1cc(O)c2ccc3c(S(=O)(=O)O)cc(S(=O)(=O)O)c4ccc1c2c34 [8-hydroxypyrene-1,3,6-trisulfonic acid]
LD50 (Swiss-Webster mice): exceeding 1000 mg/kg

Cc1c(CC(=O)O)c(=O)oc2cc(O)ccc12 [Compound 4-MUA, 7-hydroxy-4-methylumbelliferone-3-acetic acid]
sensitivity to solution pH [1]: high sensitivity to solution pH
Em. Max. [2]: 454 nm
ε ([2]; at first maximum): 19100 M⁻¹ cm⁻¹
Abs Max ([2]; first maximum): 360 nm
Emission Bandwidth [2, 12]: 58 nm
Emission Bandwidth [cm^-1] [2, 12]: 2668 cm⁻¹
Quantum Yield [2]: med.
% Emission at 514 nm [2, 13]: 20 % of max
Water Solubility [3]: low

NNC(=O)COc1cc(S(=O)(=O)[O-])c2ccc3c(S(=O)(=O)[O-])cc(S(=O)(=O)[O-])c4ccc1c2c43.[Na+].[Na+].[Na+] [Compound 12, 1,3,6-Trisulfo-8-pyrenyloxyacethydrazide, trisodium salt]
resolution of emission from fluorescein and Lucifer Yellow CH [4]: emission which is well resolved from the emission bands of both these widely used dyes
Quantum Yield [5]: 0.54
Emission Band-width [6]: 50 nm
Emission at 514 nm [6]: 3.9 % of max
Abs Max ([6]; first (longer-wavelength) maximum): 399 nm
Abs Max ([6]; second (shorter-wavelength) maximum): 377 nm
ε ([2]; at first maximum): 28000 M⁻¹ cm⁻¹
ε ([2]; at second maximum): 23300 M⁻¹ cm⁻¹
Abs Max ([2]; first maximum): 399 nm
Emission Bandwidth [2, 12]: 50 nm
Emission Bandwidth [cm^-1] [2, 12]: 2168 cm⁻¹
Quantum Yield [2]: high
% Emission at 514 nm [2, 13]: 3.8 % of max
Abs Max ([2]; second maximum): 376 nm
Water Solubility [3]: high

CC(=O)Nc1ccc(/C=C/c2ccc(N=C=S)cc2S(=O)(=O)O)c(S(=O)(=O)O)c1 [SITS, 4-acetamido-4'-isothiocyanatostilbene-2,2'-disulfonic acid]
aqueous solubility / lipophilicity [7]: high water solubility
% Emission at 514 nm [2]: 19
Abs Max [2]: 337
Em. Max. [2]: 438
Emission Bandwidth [2]: 82
Emission Bandwidth [cm^-1] [2]: 4825
ε [2]: 37400 M⁻¹ cm⁻¹
Quantum Yield [2]: low
Water Solubility [3]: high
effect on anion transport systems in red blood cells [8]: inhibitory effect
effect on microsomal glucose-6-phosphatase [9]: inhibitory effect

O=C1OC2(c3ccc(O)cc3Oc3cc(O)ccc32)c2ccccc21 [fluorescein]
extinction coefficient ([10]; at absorbance maximum): 75,000 cm^-1 M^-1
emission onset ([10]; beginning of visible emission): approximately 480 nm

O=S(=O)(Cl)c1cc(O)c2ccc3c(S(=O)(=O)Cl)cc(S(=O)(=O)Cl)c4ccc1c2c34 [hydroxypyrenetrisulfonyl chloride, 8-hydroxypyrene-1,3,6-trisulfonyl chloride]
sensitivity to solution pH [1]: high sensitivity to solution pH

C=C[C@H]1C[N@@]2CC[C@H]1C[C@H]2[C@H](O)c1ccnc2ccc(OC)cc12 [quinine sulfate]
quantum yield of standard [11]: 0.55

O=C(CCCc1ccc2ccc3cccc4ccc1c2c34)ON1C(=O)CCC1=O [succinimidyl pyrene-1-butyrate]
aqueous solubility / lipophilicity [7]: quite lipophilic and insoluble in the aqueous solutions
